Test results as given in patent publication US7772183B2 (Bristol-Myers Squibb Company, priority 2005, dated 2010).
pEC50, pIC50: −log10 of the molar value.

Columns and labels:
[1] = molecular target: T1, HCV NS3/4A protease complex, BMS strain (UniProt P27958, species not given/STRAIN_BMS); assay: FRET peptide assay to monitor HCV NS3/4A proteolytic activity (BMS strain); format: biochemical, Hepatitis C virus (genotype 1a); details: NS3/4A BMS strain; read-out: IC50 Range
T1 construct: said of H77 and J4L6S; fused on or other part: A three-lysine solubilising tail at the C-terminus of NS4A and a His tag (pET21b, Ni-NTA purification)
Outline: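 Recombinant NS3/4A complexes (aa 1027–1711) from H77 (1a) and J4L6S (1b) carried a three-lysine tail, C1711G and C1454S. They were expressed in E. coli BL21(DE3) (0.5 mM IPTG, 22 h, 20 °C), then purified by Ni-NTA and Superdex-S200 to >90% purity. The BMS strain was a genotype 1a clone from patient serum.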

[2] = tested on: HCV replicon in HUH-7 cells; assay: HCV replicon FRET assay; format: cell-based, Hepatitis C virus (strain 1b); details: Hepatitis C virus, Huh-7; HCV replicon, for compounds tested; read-out: EC50 Range
Outline: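 HUH-7 cells stably carrying a genotype 1b subgenomic HCV replicon (NS3–NS5B) treated with compound for 4 days at 37° C, 0.5% DMSO final. Cytotoxicity (CC50) read by alamar Blue; cells then lysed with 10 μM FRET HCV protease peptide substrate and kinetically read (340/490 nm) for EC50.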

T1 sequence (P27958 1027-1657, change not shown, one chain of several): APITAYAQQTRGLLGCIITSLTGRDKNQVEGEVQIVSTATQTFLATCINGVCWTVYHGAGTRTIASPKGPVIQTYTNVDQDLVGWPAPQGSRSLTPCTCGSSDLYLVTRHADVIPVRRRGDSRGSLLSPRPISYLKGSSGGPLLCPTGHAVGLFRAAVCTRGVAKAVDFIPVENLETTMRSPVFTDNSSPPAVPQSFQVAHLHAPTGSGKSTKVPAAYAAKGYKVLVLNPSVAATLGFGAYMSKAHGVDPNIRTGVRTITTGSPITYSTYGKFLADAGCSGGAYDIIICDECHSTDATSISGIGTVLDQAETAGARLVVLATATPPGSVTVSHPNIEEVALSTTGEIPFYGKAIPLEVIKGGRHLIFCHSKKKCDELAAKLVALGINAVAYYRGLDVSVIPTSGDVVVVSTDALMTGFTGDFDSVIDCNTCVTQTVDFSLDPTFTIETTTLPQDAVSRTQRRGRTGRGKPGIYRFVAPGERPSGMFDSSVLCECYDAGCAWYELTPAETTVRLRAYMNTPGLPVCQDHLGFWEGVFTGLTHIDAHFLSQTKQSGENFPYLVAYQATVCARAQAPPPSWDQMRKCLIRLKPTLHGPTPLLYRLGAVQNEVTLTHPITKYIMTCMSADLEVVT

| SMILES | pIC50 [1] | pEC50 [2] | melting point |
| --- | --- | --- | --- |
| CC(C)(C)OC(=O)N[C@H]1CCCCC/C=C\[C@@H]2C[C@@]2(C(=O)NS(=O)(=O)C2CC2)NC(=O)[C@@H]2C[C@@H](OC(=O)c3cccc(OC(F)(F)F)c3)CN2C1=O [Compound 17, 18-[(3-trifluoromethoxy)benzoyloxy]-14-tert-butoxycarbonylamino-4-cyclopropylsulfonylaminocarbonyl-2,15-dioxo-3,16-diazatricyclo-[14.3.0.0^4,6]-nonadec-7-ene] | > 7.00 | > 7.00 | 132 to 134 °C |
| CC(C)(C)OC(=O)N[C@H]1COCCC/C=C\[C@@H]2C[C@@]2(C(=O)NS(=O)(=O)C2CC2)NC(=O)[C@@H]2C[C@@H](OC(=O)Nc3ccccc3Oc3ccccc3)CN2C1=O [Compound 40, 18-(2-phenoxyphenylaminocarbonyloxy)-14-tert-butoxycarbonylamino-4-cyclopropylsulfonylaminocarbonyl-2,15-dioxo-3,16-diaza-12-oxatricyclo-[14.3.0.0^4,6]-nonadec-7-ene] | 6.00 to 7.00 | 6.00 to 7.00 | 151 to 153 °C |
